Drawing on patent US20240398999A1, “DC BIOMIMETIC MEMBRANE NANOPARTICLE LOADED WITH NIR-II AIE DYE, PREPARATION METHOD THEREFOR AND USE THEREOF” (SHENZHEN INSTITUTES OF ADVANCED TECHNOLOGY CHINESE ACADEMY …, priority 2023, published 2024), this text covers maximum temperature and photothermal conversion efficiency for one substance.

The conditions of data set [1]: 808 nm laser, 3 min irradiation per cycle.
Method: The nanoparticle solution filled with the BPBBT dot was fixed and irradiated by using an 808 nm laser. Meanwhile, the temperature of the solution was monitored in real time by using a thermal imaging camera. The laser was turned off after 3 min of irradiation, and the laser was turned on again when the temperature was recovered to the initial temperature. In this way, 5 cycles were repeated, and whether the highest temperature of each cycle was the same or not was observed so as to judge the stability of photothermal conversion.
For data set [2] the following is noted: BPBBT solution in 5% THF at the same concentration (50 μM); stated as known; cited from earlier work.

As to “4,8-bis[4-(N, N-bis(4-octyloxyphenyl)amino)phenyl]benzo[1,2-c:4,5-c′]bis([1,2,5]thiadiazole) [BPBBT]”, in data set [1], the maximum temperature entry is “about 48 °C”. The photothermal conversion efficiency in data set [2] is 22%.
